The record followed here is patent US20220324835A1 (Nurix Therapeutics, Inc., priority 2018, published 2022).

Experiment [1] relates to T-cell. Nature of the experiment: IL-2 secretion from T-cells co-stimulated with anti-CD3 and anti-CD28 antibody (Biological Example 2). The conditions noted are these: Homo sapiens, T-cell, fold change over baseline, primary human total T-cells, read-out: IL-2 secretion Anti-CD3/Anti-CD28 stimulation; for fold induction at 0.3 µM: 0.3 μM Cbl-b inhibitor; for fold induction at 1 µM: 1 μM Cbl-b inhibitor; for fold induction at 4 µM: 4 μM Cbl-b inhibitor. It is filed as cell-based, human. The method in brief:
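T-cells were stimulated with anti-CD3 antibody alone or with anti-CD28 antibody, in the presence or absence of Cbl-b inhibitor. IL-2 secretion or CD25 surface staining was measured, and values expressed as fold over the uninhibited baseline […].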

Experiment [2] has as its system T-cell. The experiment can be described thus: IL-2 secretion from T-cells stimulated with anti-CD3 antibody alone (Biological Example 2). It is filed as cell-based, human. The following applies: T-cell, fold change over baseline, primary human total T-cells, read-out: IL-2 secretion Anti-CD3 stimulation; for fold induction at 1 µM: 1 μM Cbl-b inhibitor; for fold induction at 8 µM: 8 μM Cbl-b inhibitor.

Experiment [3] concerns T-cell. Nature of the experiment: CD25 cell surface staining on T-cells stimulated with anti-CD3 antibody alone (Biological Example 2). It is filed as cell-based, human. The following applies: T-cell, fold change over baseline, primary human total T-cells, read-out: CD25 staining Anti-CD3 stimulation; for fold induction at 1 µM: 1 μM Cbl-b inhibitor; for fold induction at 8 µM: 8 μM Cbl-b inhibitor.

A further experiment relates to primary human NK cells. Nature of the experiment: NK cell activation assessed by cytokine secretion (coculture with K562 NucRed target cells). It is filed as cell-based. The conditions noted are these: for fold induction at 0.625 µM: 0.625 μM compound; for fold induction at 2.5 µM: 2.5 μM compound. The method in brief:
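Primary NK cells from donor PBMC, IL-2 (60 ng/mL) overnight, then Cbl-b inhibitor (e.g. 10, 1 or 0.1 μM; DMSO <0.1%) for 1 h before 6 h coculture with K562 NucRed at effector:target ratios such as 5:1, 1:1 or 1:5. Supernatant IFNγ, TNFα, MIP1β measured by ELISA or Luminex; fold change over inhibitor-free baseline, >2.0-fold positive.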

Setting [4] is: K562, 1:1 E/T, read-out: IFNγ secretion.
Where [5] appears, read: K562, 1:1 E/T, read-out: MIP1β secretion.
Setting [6] is: K562, 1:1 E/T, read-out: TNFα secretion.
Where [7] appears, read: K562, 1:1 E/T, 10 μM, read-out: IFNγ secretion.
[8] abbreviates: K562, 1:1 E/T, 10 μM, read-out: MIP1β secretion.
[9] abbreviates: K562, 1:1 E/T, 10 μM, read-out: TNFα secretion.
[10] abbreviates: K562, 5:1 E/T, read-out: IFNγ secretion.
[11] abbreviates: K562, 5:1 E/T, read-out: MIP1β secretion.
The mark [12] stands for this setting: K562, 5:1 E/T, read-out: TNFα secretion.
Where [13] appears, read: K562, 5:1 E/T, 10 μM, read-out: IFNγ secretion.
[14] abbreviates: K562, 5:1 E/T, 10 μM, read-out: MIP1β secretion.
Where [15] appears, read: K562, 5:1 E/T, 10 μM, read-out: TNFα secretion.
Where [16] appears, read: K562, NK cells cocultured with K562 NucRed, 1:1 E/T, read-out: IFNγ secretion, fold change over baseline.
The mark [17] stands for this setting: K562, NK cells cocultured with K562 NucRed, 1:1 E/T, read-out: TNFα secretion, fold change over baseline.
Where [18] appears, read: K562, NK cells cocultured with K562 NucRed, 1:1 E/T, 10 μM compound, read-out: IFNγ secretion, fold change over baseline.
Where [19] appears, read: K562, NK cells cocultured with K562 NucRed, 1:1 E/T, 10 μM compound, read-out: TNFα secretion, fold change over baseline.

Each structure is given as a SMILES string. Where two headings read alike, the source gives them in different places.

For `C[C@H](Cc1nncn1C)c1cccc(NC(=O)c2ccnc(C(F)(F)F)n2)c1` [Compound 187, (R)-N-(3-(1-(4-methyl-4H-1,2,4-triazol-3-yl)propan-2-yl)phenyl)-2-(trifluoromethyl)pyrimidine-4-carboxamide], the fold induction at 0.3 µM in the experiment with T-cell [1] is 1.01 to 2.5. The fold induction at 1 µM in the experiment on T-cell [1] is 2.51 to 5; in the experiment on T-cell [2] it was > 0.201; with T-cell [3], 0.801 to 1; with primary human NK cells (setting [4]) it was 1.01 to 2; with primary human NK cells (setting [5]) it was 1.01 to 2; with primary human NK cells (setting [6]), < 1. Further, the figures for the fold induction at 1 µM in the experiment with primary human NK cells (setting [10]), with primary human NK cells (setting [11]) and in the experiment on primary human NK cells (setting [12]) were 2.01 to 5, 1.01 to 2 and 2.01 to 5, respectively. Also, the fold induction at 4 µM in the experiment with T-cell [1] was > 7.5. In addition, the figures for the fold induction at 8 µM with T-cell [2] and in the experiment with T-cell [3] were > 0.201 and > 1, respectively. Besides, the fold induction at 10 µM was 2.01 to 5 in the experiment on primary human NK cells (setting [7]); 2.01 to 5 with primary human NK cells (setting [8]); 2.01 to 5 in the experiment on primary human NK cells (setting [9]); > 5 in the experiment with primary human NK cells (setting [13]); 2.01 to 5 with primary human NK cells (setting [14]); > 5 in the experiment with primary human NK cells (setting [15]).
On to `C[C@H](Cc1nncn1C)c1cccc(NC(=O)c2cccc(CCO)n2)c1` [Compound 202, 6-(2-hydroxyethyl)-N-[3-[(2R)-1-(4-methyl-4H-1,2,4-triazol-3-yl)propan-2-yl]phenyl]pyridine-2-carboxamide], for which, in the experiment with T-cell [1], the fold induction at 0.3 µM lay within 1.01 to 2.5, the fold induction at 1 µM was 1.01 to 2.5 and the fold induction at 4 µM lay within 2.51 to 5. Also, in the experiment with T-cell [2], the fold induction at 1 µM lay within 0.051 to 0.1 and the fold induction at 8 µM lay in the range of 0.151 to 0.2. Also, in the experiment on T-cell [3], the fold induction at 1 µM was < 0.6 and the fold induction at 8 µM fell in the range of 0.801 to 1. Further, in the experiment on primary human NK cells (setting [16]), the fold induction at 0.625 µM is 1.01 to 2 and the fold induction at 2.5 µM lay in the range of 1.01 to 2. In the experiment on primary human NK cells (setting [17]), the fold induction at 0.625 µM was < 1 and the fold induction at 2.5 µM lay within 1.01 to 2. In addition, in the experiment with primary human NK cells (setting [18]), the fold induction at 10 µM lay within 2.01 to 5. For the same compound, the fold induction at 10 µM in the experiment with primary human NK cells (setting [19]) lay within 1.01 to 2.
For the compound `C[C@H](Cc1nncn1C)c1cccc(N2Cc3c(ccnc3C3CC3)C2=O)c1` [Compound 257, 4-cyclopropyl-2-[3-[(1R)-1-methyl-2-(4-methyl-1,2,4-triazol-3-yl)ethyl]phenyl]-3H-pyrrolo[3,4-c]pyridin-1-one], in the experiment with T-cell [1], the fold induction at 0.3 µM lay in the range of 1.01 to 2.5, the fold induction at 1 µM lay in the range of 1.01 to 2.5 and the fold induction at 4 µM was in the range of 1.01 to 2.5. In addition, in the experiment with T-cell [2], the fold induction at 1 µM was in the range of 0.151 to 0.2 and the fold induction at 8 µM was > 0.201. In the experiment with T-cell [3], the fold induction at 1 µM was 0.601 to 0.8 and the fold induction at 8 µM is > 1. In the experiment with primary human NK cells (setting [16]), the fold induction at 0.625 µM lay in the range of 1.01 to 2 and the fold induction at 2.5 µM was 2.01 to 5. In the experiment on primary human NK cells (setting [17]), the fold induction at 0.625 µM was 1.01 to 2 and the fold induction at 2.5 µM was 1.01 to 2. For the same compound, the fold induction at 10 µM in the experiment on primary human NK cells (setting [18]) was 2.01 to 5. For the same compound, the fold induction at 10 µM in the experiment with primary human NK cells (setting [19]) fell in the range of 2.01 to 5.
Take `Cn1cnnc1[C@@H]1C[C@@H]1c1cccc(N2Cc3c(cccc3C(F)(F)F)C2=O)c1` [Compound 282, 2-(3-((1S,2R)-2-(4-methyl-4H-1,2,4-triazol-3-yl)cyclopropyl)phenyl)-4-(trifluoromethyl)isoindolin-1-one]: in the experiment on T-cell [1], the fold induction at 0.3 µM was < 1, the fold induction at 1 µM was 1.01 to 2.5 and the fold induction at 4 µM lay in the range of 2.51 to 5. Besides, in the experiment with T-cell [2], the fold induction at 1 µM is < 0.05 and the fold induction at 8 µM was < 0.05. Further, in the experiment with T-cell [3], the fold induction at 1 µM is 0.601 to 0.8 and the fold induction at 8 µM was > 1. In the experiment with primary human NK cells (setting [16]), the fold induction at 0.625 µM fell in the range of 1.01 to 2 and the fold induction at 2.5 µM fell in the range of 1.01 to 2. In addition, in the experiment with primary human NK cells (setting [17]), the fold induction at 0.625 µM fell in the range of 1.01 to 2 and the fold induction at 2.5 µM was in the range of 1.01 to 2. Moreover, the fold induction at 10 µM in the experiment with primary human NK cells (setting [18]) is 2.01 to 5. Besides, in the experiment with primary human NK cells (setting [19]), the fold induction at 10 µM lay in the range of 2.01 to 5.
Take `Cn1cnnc1C(F)(F)[C@](C)(F)c1cccc(N2Cc3c(cccc3C(F)(F)F)C2=O)c1` [Compound 296a, (R)-2-(3-(1,1,2-trifluoro-1-(4-methyl-4H-1,2,4-triazol-3-yl)propan-2-yl)phenyl)-4-(trifluoromethyl)isoindolin-1-one]: in the experiment with T-cell [1], the fold induction at 0.3 µM was 1.01 to 2.5. Besides, the fold induction at 1 µM with T-cell [1] was 1.01 to 2.5; in the experiment with T-cell [2], 0.151 to 0.2; with T-cell [3] it was 0.601 to 0.8; with primary human NK cells (setting [4]), 1.01 to 2; with primary human NK cells (setting [5]), < 1; with primary human NK cells (setting [6]) it was < 1. The fold induction at 1 µM with primary human NK cells (setting [10]), in the experiment on primary human NK cells (setting [11]) and in the experiment with primary human NK cells (setting [12]) was < 1 throughout. Besides, the fold induction at 4 µM in the experiment on T-cell [1] fell in the range of 2.51 to 5. Besides, the fold induction at 8 µM is > 0.201 with T-cell [2] and > 1 in the experiment on T-cell [3]. Moreover, the fold induction at 10 µM is 2.01 to 5 in the experiment on primary human NK cells (setting [7]); < 1 with primary human NK cells (setting [8]); 1.01 to 2 in the experiment with primary human NK cells (setting [9]); 1.01 to 2 in the experiment with primary human NK cells (setting [13]); < 1 in the experiment on primary human NK cells (setting [14]); < 1 in the experiment with primary human NK cells (setting [15]).
For the compound `C[C@H](Cc1nncn1C)c1ccnc(NC(=O)c2cccc(C(F)(F)F)n2)c1` [Compound 302, (R)-N-(4-(1-(4-methyl-4H-1,2,4-triazol-3-yl)propan-2-yl)pyridin-2-yl)-6-(trifluoromethyl)picolinamide], in the experiment with T-cell [1], the fold induction at 0.3 µM lay in the range of 2.51 to 5, the fold induction at 1 µM was in the range of 2.51 to 5 and the fold induction at 4 µM is > 7.5. In the experiment on T-cell [2], the fold induction at 1 µM was < 0.05 and the fold induction at 8 µM lay within 0.051 to 0.1. Further, in the experiment with T-cell [3], the fold induction at 1 µM was < 0.6 and the fold induction at 8 µM was 0.801 to 1. In the experiment on primary human NK cells (setting [16]), the fold induction at 0.625 µM was < 1 and the fold induction at 2.5 µM is 1.01 to 2. For the same compound, in the experiment with primary human NK cells (setting [17]), the fold induction at 0.625 µM is 1.01 to 2 and the fold induction at 2.5 µM was in the range of 1.01 to 2. Moreover, the fold induction at 10 µM with primary human NK cells (setting [18]) is 2.01 to 5. Besides, the fold induction at 10 µM in the experiment with primary human NK cells (setting [19]) lay within 1.01 to 2.
Turning to `C[C@H](Cc1nncn1C)c1cccc(NC(=O)c2nc(C(F)(F)F)c[nH]2)c1` [Compound 326, (R)-N-(3-(1-(4-methyl-4H-1,2,4-triazol-3-yl)propan-2-yl)phenyl)-4-(trifluoromethyl)-1H-imidazole-2-carboxamide], in the experiment with T-cell [1], the fold induction at 0.3 µM fell in the range of 1.01 to 2.5, the fold induction at 1 µM was 2.51 to 5 and the fold induction at 4 µM lay in the range of 2.51 to 5. Also, in the experiment with T-cell [2], the fold induction at 1 µM was 0.051 to 0.1 and the fold induction at 8 µM was > 0.201. Moreover, in the experiment with T-cell [3], the fold induction at 1 µM was 0.801 to 1 and the fold induction at 8 µM was > 1. In the experiment with primary human NK cells (setting [16]), the fold induction at 0.625 µM fell in the range of 1.01 to 2 and the fold induction at 2.5 µM is 2.01 to 5. In the experiment with primary human NK cells (setting [17]), the fold induction at 0.625 µM fell in the range of 1.01 to 2 and the fold induction at 2.5 µM lay in the range of 2.01 to 5. For the same compound, the fold induction at 10 µM in the experiment on primary human NK cells (setting [18]) was in the range of 2.01 to 5. Also, in the experiment with primary human NK cells (setting [19]), the fold induction at 10 µM fell in the range of 2.01 to 5.
